Results: patent publication US20050070554A1, “Substituted heterocyclic compounds and methods of use” (Amgen Inc., priority 2003, published 2005)

target: T1, LCK (Homo sapiens, UniProt P06239); assay: LCK-Homogeneous Time Resolved Fluorescent (HTRF) Kinase Assay; assay type: biochemical; settings: read-out: activity in the LCK-HTRF Kinase Assay
T1 construct: LCK KD GST (225-509); GST
Method: LCK-Homogeneous Time Resolved Fluorescent (HTRF) Kinase Assay:
The LCK HTRF assay begins with LCK in the presence of ATP phosphorylating the biotinylated peptide Gastrin. The reaction incubates for 90 min. To quench the assay detection reagents are added which both stop the reaction by diluting out the enzyme and chelating the metals due to the presence of EDTA. Once the detection reagents are added the assay incubates for 30 min to allow for equilibration of the detection reagents.
Buffer conditions are as follows: 50 mM HEPES pH 7.5, 50 mM NaCl, 20 mM MgCl, 5 mM MnCl, 2 mM DTT, 0.05% BSA.
The assay is quenched and stopped with 160 μL of detection reagent. Detection reagents are as follows: Buffer made of 50 mM Tris, pH 7.5, 100 mM NaCl, 3 mM EDTA, 0.05% BSA, 0.1% Tween20.
The assay plate is read in either a Discovery or a RubyStar.

T1 sequence (P06239 225-509): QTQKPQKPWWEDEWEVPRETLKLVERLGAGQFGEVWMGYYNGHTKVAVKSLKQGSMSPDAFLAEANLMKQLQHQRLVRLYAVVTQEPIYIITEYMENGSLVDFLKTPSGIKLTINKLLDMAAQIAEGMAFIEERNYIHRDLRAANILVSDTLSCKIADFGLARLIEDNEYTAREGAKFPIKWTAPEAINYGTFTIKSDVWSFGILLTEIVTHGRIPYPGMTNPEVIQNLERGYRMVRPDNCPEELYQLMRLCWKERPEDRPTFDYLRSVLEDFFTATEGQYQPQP

IC50, < 1000 nM:
Cc1cccc(C)c1-n1c(=O)c2cnc(Nc3ccc(N4CCN(C)CC4)c(Cl)c3)nc2n2c3ccccc3nc12 [No. 40, 2-((3-chloro-4-(4-methyl-1-piperazinyl)phenyl)-amino)-6-(2,6-dimethylphenyl)pyrimido[5′,4′:5,6]-pyrimido[1,2-a]benzimidazol-5(6H)-one]
Cc1cccc(C)c1-n1c(=O)c2cnc(Nc3ccc(N4CCN(C(C)C)CC4)c(Cl)c3)nc2n2c3ccccc3nc12 [No. 41, 2-((3-chloro-4-(4-(1-methylethyl)-1-piperazinyl)-phenyl)amino)-6-(2,6-dimethylphenyl)-pyrimido[5′,4′:5,6]pyrimido[1,2-a]benzimidazol-5(6H)-one]
Cc1cccc(C)c1-n1c(=O)c2cnc(Nc3ccc(N4CCN(CC5CCCCC5)CC4)cc3)nc2n2c3ccccc3nc12 [No. 42, 2-((4-(4-(cyclohexylmethyl)-1-piperazinyl)phenyl)-amino)-6-(2,6-dimethylphenyl)pyrimido[5′,4′:5,6]-pyrimido[1,2-a]benzimidazol-5(6H)-one]
COc1cc(Nc2ncc3c(=O)n(-c4c(C)cccc4C)c4nc5ccccc5n4c3n2)ccc1OCCNC(C)C [No. 43, 6-(2,6-dimethylphenyl)-2-((4-((2-((1-methylethyl)-amino)ethyl)oxy)-3-(methyloxy)phenyl)amino)-pyrimido[5′,4′:5,6]pyrimido[1,2-a]benzimidazol-5(6H)-one]
Cc1cccc(C)c1-n1c(=O)c2cnc(Nc3ccc(N4CCN(C(C)C)CC4)c(F)c3)nc2n2c3ccccc3nc12 [No. 44, 6-(2,6-dimethylphenyl)-2-((3-fluoro-4-(4-(1-methylethyl)-1-piperazinyl)phenyl)amino)-pyrimido[5′,4′:5,6]pyrimido[1,2-a]benzimidazol-5(6H)-one]
Cc1cccc(C)c1-n1c(=O)c2cnc(Nc3ccc(N4CCN(CCN(C)C)CC4)cc3)nc2n2c3ccccc3nc12 [No. 45, 2-((4-(4-(2-(dimethylamino)ethyl)-1-piperazinyl)-phenyl)amino)-6-(2,6-dimethylphenyl)-pyrimido[5′,4′:5,6]pyrimido[1,2-a]benzimidazol-5(6H)-one]
COc1cc(Nc2ncc3c(=O)n(-c4c(C)cccc4C)c4nc5ccccc5n4c3n2)ccc1N1CCN(C(C)C)CC1 [No. 46, 6-(2,6-dimethylphenyl)-2-((4-(4-(1-methylethyl)-1-piperazinyl)-3-(methyloxy)phenyl)amino)-pyrimido[5′,4′:5,6]pyrimido[1,2-a]benzimidazol-5(6H)-one]
Cc1cccc(C)c1-n1c(=O)c2cnc(Nc3ccc(OCCNC(C)C)c(Cl)c3)nc2n2c3ccccc3nc12 [No. 47, 2-((3-chloro-4-((2-((1-methylethyl)amino)ethyl)oxy)-phenyl)amino)-6-(2,6-dimethylphenyl)-pyrimido[5′,4′:5,6]pyrimido[1,2-a]benzimidazol-5(6H)-one]
Cc1cccc(C)c1-n1c(=O)c2cnc(Nc3cccc(N4CCN(C)CC4)c3)nc2n2c3ccccc3nc12 [No. 48, 6-(2,6-dimethylphenyl)-2-((3-(4-methyl-1-piperazinyl)phenyl)amino)pyrimido[5′,4′:5,6]-pyrimido[1,2-a]benzimidazol-5(6H)-one]
Cc1cccc(C)c1-n1c(=O)c2cnc(Nc3ccc(N4CCN(CCCN(C)C)CC4)cc3)nc2n2c3ccccc3nc12 [No. 49, 2-((4-(4-(3-(dimethylamino)propyl)-1-piperazinyl)-phenyl)amino)-6-(2,6-dimethylphenyl)-pyrimido[5′,4′:5,6]pyrimido[1,2-a]benzimidazol-5(6H)-one]
Cc1cccc(C)c1-n1c(=O)c2cnc(Nc3ccc(N4CCN(CC(N)=O)CC4)cc3)nc2n2c3ccccc3nc12 [No. 50, 2-(4-(4-((6-(2,6-dimethylphenyl)-5-oxo-5,6-dihydropyrimido[5′,4′:5,6]pyrimido[1,2-a]-benzimidazol-2-yl)amino)phenyl)-1-piperazinyl)-acetamide]
Cc1cccc(C)c1-n1c(=O)c2cnc(Nc3ccc(N4CCN(Cc5cccc(Cl)c5)CC4)cc3)nc2n2c3ccccc3nc12 [No. 51, 2-((4-(4-((3-chlorophenyl)methyl)-1-piperazinyl)-phenyl)amino)-6-(2,6-dimethylphenyl)-pyrimido[5′,4′:5,6]pyrimido[1,2-a]benzimidazol-5(6H)-one]
COc1cccc(CN2CCN(c3ccc(Nc4ncc5c(=O)n(-c6c(C)cccc6C)c6nc7ccccc7n6c5n4)cc3)CC2)c1 [No. 52, 6-(2,6-dimethylphenyl)-2-((4-(4-((3-(methyloxy)-phenyl)methyl)-1-piperazinyl)phenyl)amino)-pyrimido[5′,4′:5,6]pyrimido[1,2-a]benzimidazol-5(6H)-one]
Cc1cccc(C)c1-n1c(=O)c2cnc(Nc3ccc(N4CCN(Cc5cccc(C#N)c5)CC4)cc3)nc2n2c3ccccc3nc12 [No. 53, 3-((4-(4-((6-(2,6-dimethylphenyl)-5-oxo-5,6-dihydropyrimido[5′,4′:5,6]pyrimido[1,2-a]-benzimidazol-2-yl)amino)phenyl)-1-piperazinyl)-methyl)benzonitrile]
COCCN1CCN(c2ccc(Nc3ncc4c(=O)n(-c5c(C)cccc5C)c5nc6ccccc6n5c4n3)cc2)CC1 [No. 54, 6-(2,6-dimethylphenyl)-2-((4-(4-(2-(methyloxy)ethyl)-1-piperazinyl)phenyl)amino)pyrimido[5′,4′:5,6]-pyrimido[1,2-a]benzimidazol-5(6H)-one]
COc1cc(Nc2ncc3c(=O)n(-c4c(C)cccc4C)c4nc5ccccc5n4c3n2)ccc1OC[C@H]1CCCN1 [No. 55, 6-(2,6-dimethylphenyl)-2-((3-(methyloxy)4-(((2R)-2-pyrrolidinylmethyl)oxy)phenyl)amino)-pyrimido[5′,4′:5,6]pyrimido[1,2-a]benzimidazol-5(6H)-one]
Cc1cccc(C)c1-n1c(=O)c2cnc(Nc3ccc(OCCNC(C)C)cc3)nc2n2c3ccccc3nc12 [No. 56, 6-(2,6-dimethylphenyl)-2-((4-((2-((1-methylethyl)-amino)ethyl)oxy)phenyl)amino)pyrimido[5′,4′:5,6]-pyrimido[1,2-a]benzimidazol-5(6H)-one]
COc1ccc(-n2c(=O)c3cnc(Nc4ccc(N5CCN(C)CC5)cc4)nc3n3c4ccccc4nc23)cc1 [No. 57, 6-(4-(methyloxy)phenyl)-2-((4-(4-methyl-1-piperazinyl)phenyl)amino)pyrimido[5′,4′:5,6]-pyrimido[1,2-a]benzimidazol-5(6H)-one]
Cc1cccc(C)c1N1C(=O)c2cnc(Nc3ccc(N4CCN(C)CC4)cc3)nc2N2CCN=C21 [No. 58, 6-(2,6-dimethylphenyl)-2-((4-(4-methyl-1-piperazinyl)phenyl)amino)-8,9-dihydroimidazo[1,2-a]pyrimido[5,4-e]pyrimidin-5(6H)-one]
Cc1cccc(C)c1-n1c(=O)c2cnc(Nc3ccc(OCCN4CCCCC4)c(Cl)c3)nc2n2c3ccccc3nc12 [No. 59, 2-((3-chloro-4-((2-(1-piperidinyl)ethyl)oxy)phenyl)-amino)-6-(2,6-dimethylphenyl)pyrimido[5′,4′:5,6]-pyrimido[1,2-a]benzimidazol-5(6H)-one]
C[C@@H](c1ccccc1)n1c(=O)c2cnc(Nc3ccc(N4CCN(C)CC4)cc3)nc2n2c3ccccc3nc12 [No. 60, 2-((4-(4-methyl-1-piperazinyl)phenyl)amino)-6-((1S)-1-phenylethyl)pyrimido[5′,4′:5,6]pyrimido[1,2-a]-benzimidazol-5(6H)-one]
Cc1cccc(C)c1-n1c(=O)c2cnc(Nc3ccc(OCCN4CCN(C(C)C)CC4)c(F)c3)nc2n2c3ccccc3nc12 [No. 61, 6-(2,6-dimethylphenyl)-2-((3-fluoro-4-((2-(4-(1-methylethyl)-1-piperazinyl)ethyl)oxy)phenyl)amino)-pyrimido[5′,4′:5,6]pyrimido[1,2-a]benzimidazol-5(6H)-one]
COc1cc(Nc2ncc3c(=O)n(-c4c(C)cccc4C)c4nc5ccccc5n4c3n2)ccc1OCCN1CCN(C(C)C)CC1 [No. 62, 6-(2,6-dimethylphenyl)-2-((4-((2-(4-(1-methylethyl)-1-piperazinyl)ethyl)oxy)-3-(methyloxy)phenyl)-amino)pyrimido[5′,4′:5,6]pyrimido[1,2-a]-benzimidazol-5(6H)-one]
COc1cc(Nc2ncc3c(=O)n(-c4c(C)cccc4C)c4nc5ccccc5n4c3n2)ccc1OCCCN1CCN(C(C)C)CC1 [No. 63, 6-(2,6-dimethylphenyl)-2-((4-((3-(4-(1-methylethyl)-1-piperazinyl)propyl)oxy)-3-(methyloxy)phenyl)-amino)pyrimido[5′,4′:5,6]pyrimido[1,2-a]-benzimidazol-5(6H)-one]
CCN(CC)CCN(C)C(=O)c1ccc(Nc2ncc3c(=O)n(-c4c(C)cccc4C)c4nc5ccccc5n4c3n2)cc1 [No. 64, N-(2-(diethylamino)ethyl)-4-((6-(2,6-dimethylphenyl)-5-oxo-5,6-dihydropyrimido[5′,4′:5,6]pyrimido[1,2-a]-benzimidazol-2-yl)amino)-N-methylbenzamide]
Cc1cccc(C)c1-n1c(=O)c2cnc(Nc3cccc(C(=O)NCCN(C)C)c3)nc2n2c3ccccc3nc12 [No. 65, N-(2-(dimethylamino)ethyl)-3-((6-(2,6-dimethylphenyl)-5-oxo-5,6-dihydropyrimido[5′,4′:5,6]pyrimido[1,2-a]-benzimidazol-2-yl)amino)benzamide]
